According to ChEMBL document CHEMBL1201862, “PubChem BioAssay data set” (2004):
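Step 1: Grow cells in 96-well plates. Step 2: Expose to compound for 48 hours at 5 concentrations. Step 3: Interpolate endpoints linearly; if unreached, use highest concentration. GI50 = concentration required for 50% inhibition of growth.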 Calls of active or inactive are those of the source. Rule as the data show it: active = GI50 up to about 1.1 µM and inactive = higher.

Columns and labels:
Test in all cases: inhibition of tumour cell growth, NCI panel, 48 h
[1] = test system: A549
[2] = test system: HOP-92
[3] = test system: KM-20L2
[4] = test system: UO-31
[5] = test system: NCI-H522
[6] = test system: IGROV-1
[7] = test system: SNB-75
[8] = test system: MOLT-4
[9] = test system: Malme-3M
[10] = test system: CAKI-1
[11] = test system: LXFL 529
[12] = test system: COLO 205
[13] = test system: K562
[14] = test system: OVCAR-4
[15] = test system: SW-620
[16] = test system: OVCAR-3
[17] = test system: SF-539
[18] = test system: 786-0
[19] = test system: SK-OV-3
[20] = test system: SK-MEL-2
[21] = test system: UACC-62
[22] = test system: HL-60
[23] = test system: HOP-18
[24] = test system: TK-10
[25] = test system: LOX IMVI
[26] = test system: DMS-273
[27] = test system: M14
[28] = test system: NCI-H23
[29] = test system: KM12
[30] = test system: DMS-114
[31] = test system: ACHN
[32] = test system: RXF 393
[33] = test system: DLD-1
[34] = test system: SK-MEL-28
[35] = test system: SF-268
[36] = test system: HCT-15
[37] = test system: SF-295
[38] = test system: M19-MEL
[39] = test system: UACC-257
[40] = test system: HCC 2998
[41] = test system: HOP-62
[42] = test system: EKVX
[43] = test system: CCRF-CEM
[44] = test system: SNB-19
[45] = test system: NCI-H460
[46] = test system: OVCAR-8
[47] = test system: RXF 631
[48] = test system: U-251
[49] = test system: OVCAR-5
[50] = test system: HT-29
[51] = test system: SN12C
[52] = test system: RPMI-8226
[53] = test system: SK-MEL-5
[54] = test system: NCI-H226
[55] = test system: A498
[56] = test system: SNB-78

**Q.** For CC1=CC(O)(c2ccc(-c3ccccc3Cl)cc2)OC1=O (stereo not given), which GI50 [1] is on record?
**A.** > 100 µM (inactive)

**Q.** And the GI50 [2]?
**A.** > 100 µM (inactive)

**Q.** And the GI50 [3]?
**A.** > 100 µM (inactive)

**Q.** And the GI50 [4]?
**A.** > 100 µM (inactive)

**Q.** And the GI50 [5]?
**A.** > 100 µM (inactive)

**Q.** What about the GI50 [6] of the same compound?
**A.** > 100 µM (inactive)

**Q.** And the GI50 [7]?
**A.** 43.1 µM (inactive)

**Q.** What about the GI50 [8] of the same compound?
**A.** > 100 µM (inactive)

**Q.** What about the GI50 [9] of the same compound?
**A.** > 100 µM (inactive)

**Q.** And the GI50 [10]?
**A.** > 100 µM (inactive)

**Q.** What about the GI50 [11] of the same compound?
**A.** > 100 µM (inactive)

**Q.** What about the GI50 [12] of the same compound?
**A.** > 100 µM (inactive)

**Q.** And the GI50 [13]?
**A.** > 100 µM (inactive)

**Q.** What about the GI50 [14] of the same compound?
**A.** > 100 µM (inactive)

**Q.** What about the GI50 [15] of the same compound?
**A.** > 100 µM (inactive)

**Q.** And the GI50 [16]?
**A.** > 100 µM (inactive)

**Q.** And the GI50 [17]?
**A.** > 100 µM (inactive)

**Q.** And the GI50 [18]?
**A.** > 100 µM (inactive)

**Q.** What about the GI50 [19] of the same compound?
**A.** > 100 µM (inactive)

**Q.** What about the GI50 [20] of the same compound?
**A.** > 100 µM (inactive)

**Q.** What about the GI50 [21] of the same compound?
**A.** > 100 µM (inactive)

**Q.** What about the GI50 [22] of the same compound?
**A.** > 100 µM (inactive)

**Q.** What about the GI50 [23] of the same compound?
**A.** > 100 µM (inactive)

**Q.** What about the GI50 [24] of the same compound?
**A.** > 100 µM (inactive)

**Q.** What about the GI50 [25] of the same compound?
**A.** > 100 µM (inactive)

**Q.** And the GI50 [26]?
**A.** > 100 µM (inactive)

**Q.** And the GI50 [27]?
**A.** > 100 µM (inactive)

**Q.** What about the GI50 [28] of the same compound?
**A.** > 100 µM (inactive)

**Q.** And the GI50 [29]?
**A.** > 100 µM (inactive)

**Q.** And the GI50 [30]?
**A.** > 100 µM (inactive)

**Q.** What about the GI50 [31] of the same compound?
**A.** > 100 µM (inactive)

**Q.** And the GI50 [32]?
**A.** > 100 µM (inactive)

**Q.** What about the GI50 [33] of the same compound?
**A.** > 100 µM (inactive)

**Q.** What about the GI50 [34] of the same compound?
**A.** > 100 µM (inactive)

**Q.** What about the GI50 [35] of the same compound?
**A.** > 100 µM (inactive)

**Q.** What about the GI50 [36] of the same compound?
**A.** > 100 µM

**Q.** What about the GI50 [37] of the same compound?
**A.** > 100 µM (inactive)

**Q.** And the GI50 [38]?
**A.** > 100 µM (inactive)

**Q.** And the GI50 [39]?
**A.** > 100 µM (inactive)

**Q.** And the GI50 [40]?
**A.** > 100 µM (inactive)

**Q.** What about the GI50 [41] of the same compound?
**A.** > 100 µM (inactive)

**Q.** And the GI50 [42]?
**A.** > 100 µM (inactive)

**Q.** And the GI50 [43]?
**A.** > 100 µM (inactive)

**Q.** What about the GI50 [44] of the same compound?
**A.** > 100 µM (inactive)

**Q.** What about the GI50 [45] of the same compound?
**A.** > 100 µM (inactive)

**Q.** What about the GI50 [46] of the same compound?
**A.** > 100 µM (inactive)

**Q.** What about the GI50 [47] of the same compound?
**A.** > 100 µM (inactive)

**Q.** What about the GI50 [48] of the same compound?
**A.** > 100 µM (inactive)

**Q.** And the GI50 [49]?
**A.** > 100 µM (inactive)

**Q.** And the GI50 [50]?
**A.** > 100 µM (inactive)

**Q.** And the GI50 [51]?
**A.** > 100 µM (inactive)

**Q.** And the GI50 [52]?
**A.** > 100 µM (inactive)

**Q.** And the GI50 [53]?
**A.** > 100 µM (inactive)

**Q.** How did the GI50 [1] turn out when O=C(/C=C/c1ccc(OCCCCCCCCCCOc2ccc(/C=C/C(=O)c3ccc(Cl)cc3)cc2)cc1)c1ccc(Cl)cc1 was run?
**A.** > 100 µM (inactive)

**Q.** And the GI50 [2]?
**A.** > 100 µM (inactive)

**Q.** And the GI50 [3]?
**A.** > 100 µM (inactive)

**Q.** And the GI50 [4]?
**A.** > 100 µM (inactive)

**Q.** And the GI50 [5]?
**A.** > 100 µM (inactive)

**Q.** And the GI50 [6]?
**A.** > 100 µM (inactive)

**Q.** What about the GI50 [7] of the same compound?
**A.** > 100 µM (inactive)

**Q.** And the GI50 [8]?
**A.** > 100 µM (inactive)

**Q.** What about the GI50 [9] of the same compound?
**A.** > 100 µM (inactive)

**Q.** And the GI50 [10]?
**A.** > 100 µM (inactive)

**Q.** And the GI50 [54]?
**A.** > 100 µM (inactive)

**Q.** And the GI50 [12]?
**A.** > 100 µM (inactive)

**Q.** And the GI50 [13]?
**A.** > 100 µM (inactive)

**Q.** And the GI50 [15]?
**A.** > 100 µM (inactive)

**Q.** What about the GI50 [16] of the same compound?
**A.** > 100 µM (inactive)

**Q.** And the GI50 [17]?
**A.** > 100 µM (inactive)

**Q.** What about the GI50 [18] of the same compound?
**A.** > 100 µM (inactive)

**Q.** And the GI50 [19]?
**A.** > 100 µM (inactive)

**Q.** What about the GI50 [20] of the same compound?
**A.** > 100 µM (inactive)

**Q.** What about the GI50 [21] of the same compound?
**A.** > 100 µM (inactive)

**Q.** What about the GI50 [22] of the same compound?
**A.** > 100 µM (inactive)

**Q.** What about the GI50 [23] of the same compound?
**A.** > 100 µM (inactive)

**Q.** What about the GI50 [24] of the same compound?
**A.** > 100 µM (inactive)

**Q.** What about the GI50 [25] of the same compound?
**A.** > 100 µM (inactive)

**Q.** What about the GI50 [26] of the same compound?
**A.** > 100 µM (inactive)

**Q.** What about the GI50 [28] of the same compound?
**A.** > 100 µM (inactive)

**Q.** And the GI50 [29]?
**A.** > 100 µM (inactive)

**Q.** What about the GI50 [30] of the same compound?
**A.** > 100 µM (inactive)

**Q.** And the GI50 [31]?
**A.** > 100 µM (inactive)

**Q.** And the GI50 [32]?
**A.** > 100 µM (inactive)

**Q.** And the GI50 [33]?
**A.** > 100 µM (inactive)

**Q.** And the GI50 [34]?
**A.** > 100 µM (inactive)

**Q.** And the GI50 [35]?
**A.** > 100 µM (inactive)

**Q.** And the GI50 [36]?
**A.** > 100 µM

**Q.** What about the GI50 [37] of the same compound?
**A.** > 100 µM (inactive)

**Q.** And the GI50 [39]?
**A.** > 100 µM (inactive)

**Q.** And the GI50 [40]?
**A.** > 100 µM (inactive)

**Q.** And the GI50 [41]?
**A.** > 100 µM (inactive)

**Q.** What about the GI50 [42] of the same compound?
**A.** > 100 µM (inactive)

**Q.** What about the GI50 [43] of the same compound?
**A.** > 100 µM (inactive)

**Q.** And the GI50 [44]?
**A.** > 100 µM (inactive)

**Q.** And the GI50 [45]?
**A.** > 100 µM (inactive)

**Q.** What about the GI50 [46] of the same compound?
**A.** > 100 µM (inactive)

**Q.** And the GI50 [47]?
**A.** > 100 µM (inactive)

**Q.** And the GI50 [48]?
**A.** > 100 µM (inactive)

**Q.** And the GI50 [49]?
**A.** > 100 µM (inactive)

**Q.** What about the GI50 [55] of the same compound?
**A.** > 100 µM (inactive)

**Q.** What about the GI50 [50] of the same compound?
**A.** > 100 µM (inactive)

**Q.** And the GI50 [51]?
**A.** > 100 µM (inactive)

**Q.** What about the GI50 [52] of the same compound?
**A.** > 100 µM (inactive)

**Q.** What about the GI50 [56] of the same compound?
**A.** > 100 µM (inactive)

**Q.** What about the GI50 [53] of the same compound?
**A.** > 100 µM (inactive)
